Test results published in the supplement of paper PMC10307832.

How the values were obtained:
Experiment in all cases: relative viability (nuclei count vs DMSO), 5 days (fraction); higher = more cells survive
[1] = compound: C1COCCN1C2=NC(=NC3=C2OC4=C3C=CC=N4)C5=CC(=CC=C5)NC(=O)C6=CN=C(C=C6)N + Cc1nc(NC(=O)N2CCC[C@H]2C(N)=O)sc1-c1ccnc(C(C)(C)C(F)(F)F)c1 [Alpelisib] (partner 2 µM)
Summary of the method: (§1)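 A single step with final 0.05% Triton X-100, 1% formaldehyde and 1 ug/ml Hoechst fixed the cells and stained nuclei 5 days after treatment. Lung cancer cell lines in 1536-well plates had been treated by pin tool the day after seeding with one drug alone or a fixed anchor-drug dose plus five library-drug doses (not always all listed) in √10 steps, and nuclei were counted on 4× images. Relative viability is the ratio of nuclei in treated wells to nuclei in vehicle wells, taken as the median of duplicate plates.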

[2] = compound: CN1CCC(CNc2ccc3ncc(-c4cccc(OC(F)(F)F)c4)n3n2)CC1 [SGI-1776] + CC(=O)Nc1cccc(-n2c(=O)n(C3CC3)c(=O)c3c(Nc4ccc(I)cc4F)n(C)c(=O)c(C)c32)c1 [Trametinib] (partner 0.02 µM)
Summary of the method: as §1

[3] = compound: CN1CCC(CNc2ccc3ncc(-c4cccc(OC(F)(F)F)c4)n3n2)CC1 [SGI-1776] + O=C(CCCCCCC(=O)Nc1ccccc1)NO [Vorinostat] (partner 1 µM)
Summary of the method: as §1

[4] = compound: Nc1ccccc1NC(=O)c1ccc(CNC(=O)OCc2cccnc2)cc1 [Entinostat] + Cc1nc(Nc2ncc(C(=O)Nc3c(C)cccc3Cl)s2)cc(N2CCN(CCO)CC2)n1 [Dasatinib] (partner 0.075 µM)
Summary of the method: as §1

Cell Line	relative viability ([1]; first compound 0.02 µM)	relative viability ([1]; first compound 0.06325 µM)	relative viability ([1]; first compound 0.2 µM)	relative viability ([1]; first compound 0.6325 µM)	relative viability ([1]; first compound 2 µM)	relative viability ([2]; first compound 0.08 µM)	relative viability ([2]; first compound 0.8 µM)	relative viability ([2]; first compound 2.53 µM)	relative viability ([2]; first compound 8 µM)	relative viability ([3]; first compound 0.08 µM)	relative viability ([3]; first compound 0.8 µM)	relative viability ([3]; first compound 2.53 µM)	relative viability ([3]; first compound 8 µM)	relative viability ([4]; first compound 0.02 µM)	relative viability ([4]; first compound 0.06325 µM)	relative viability ([4]; first compound 0.2 µM)	relative viability ([4]; first compound 0.6325 µM)	relative viability ([4]; first compound 2 µM)
NCI-H1734	0.722	0.684	0.616	0.688	0.598	0.686	0.742	0.786	0.603	0.809	0.913	0.801	0.662	0.486	0.585	0.578	0.476	0.403
NCI-H1651	0.904	0.915	0.899	0.897	0.443	0.806	0.852	0.843	0.746	0.605	0.648	0.563	0.416	0.447	0.527	0.402	0.338	0.192
NCI-H838	1.12	0.945	0.923	0.968	0.524	0.519	0.534	0.414	0.385	0.794	0.697	0.676	0.522	0.424	0.324	0.455	0.469	0.258
NCI-H1915	1.01	1.17	1.08	1.05	0.971	0.317	0.281	0.309	0.277	0.51	0.555	0.492	0.449	0.336	0.27	0.238	0.173	0.151
COR-L23	0.958	0.876	0.844	0.868	0.589	0.694	0.619	0.613	0.408	0.581	0.387	0.41	0.327	0.45	0.444	0.398	0.22	0.112
HOP-62	0.818	1.13	0.947	0.979	0.518	0.384	0.359	0.437	0.367	0.765	0.67	0.648	0.544	0.718	0.682	0.588	0.29	0.161
NCI-H1975	0.677	0.705	0.548	0.567	0.352	0.389	0.33	0.325	0.313	0.745	0.725	0.683	0.589	0.352	0.307	0.316	0.199	0.134
BEN	1.07	1.04	1.01	0.931	0.613	1.03	1.24	0.991	0.791	0.643	0.618	0.584	0.543	0.318	0.341	0.308	0.264	0.179
EMC-BAC-2	0.794	0.867	0.785	0.707	0.589	0.992	0.966	0.853	0.879	0.551	0.593	0.424	0.298	0.349	0.318	0.298	0.177	0.109
NCI-H650	1.07	1.12	1.06	1.04	0.824	1.09	1.01	0.965	0.869	0.536	0.453	0.477	0.376	0.496	0.498	0.455	0.357	0.26
LU99A	0.608	0.46	0.41	0.379	0.284	0.62	0.594	0.542	0.515	0.463	0.531	0.56	0.443	0.529	0.577	0.451	0.477	0.439
NCI-H2347	1.06	1.03	1.06	0.998	0.842	0.323	0.278	0.3	0.277	0.598	0.622	0.588	0.496	0.325	0.328	0.196	0.193	0.205
NCI-H2009	1.26	1.24	1.16	1.11	0.838	0.345	0.303	0.234	0.175	0.756	0.761	0.671	0.588	0.329	0.331	0.376	0.346	0.241
HCC-827	0.984	0.92	0.958	0.961	0.815	0.578	0.534	0.578	0.464	0.865	0.908	0.858	0.806	0.255	0.269	0.23	0.227	0.294
NCI-H661	0.703	0.698	0.664	0.531	0.728	0.596	0.534	0.525	0.466	0.822	0.805	0.871	0.829	1.04	0.967	1.03	0.771	0.372
CAL-12T	1.26	1.29	1.26	1.15	0.537	0.433	0.399	0.33	0.288	0.794	0.876	0.723	0.699	0.571	0.427	0.375	0.295	0.218
PC-14	0.881	1.21	0.917	0.916	0.577	0.796	0.582	0.384	0.0529	0.798	0.784	0.771	0.0624	0.236	0.261	0.217	0.118	0.0579
